Patent US20110152267A1, “Compositions and Methods for Treating Hyperproliferative Disorders” (Texas Tech University System, priority 2009, published 2011)

Key:
[1] = system: CRL-2076 normal human fibroblast cell line; test: DIMSCAN cytotoxicity, fenretinide + L-threo-sphinganines 3:1 (Example B1); type: cell-based; conditions: CRL-2076, 20% O2, 96 h
Description: (§1) Cytotoxicity Assay—Once again, cytotoxicity is determined using the DIMSCAN assay system (R. Proffitt et al., Cytometry 24, 204-213 (1996); T. Frgala et al., Mol Cancer Ther. 6:886-97, 2007). The system employs digital imaging microscopy to quantify viable cells, which selectively accumulate fluorescein diacetate to become brightly fluorescent. The system is capable of measuring cytotoxicity over a 4-5 log dynamic range by quenching the residual fluorescence of dead and dying cells with eosin Y and quantifying the total fluorescence of viable cells using digital thresholding. Measured fluorescence is directly proportionate to the number of viable cells. A comparison of the total fluorescence of a drug-treated cell population to the fluorescence of a similar number of untreated cells yields a survival fraction. In brief, 2000 to 10,000 cells/well (depending on size and growth rates) are replicate plated into 60 wells of a 96-well tissue culture plate in 0.1 mL of whole medium and allowed to attach overnight. Drug(s) are then added in 0.05 mL of whole medium to the final concentrations indicated. Drugs (fenretinide, and various chain length L-threo-sphinganines) were tested both as single agents and in a 3:1 ratio of fenretinide:sphinganine. C18-L-threo-sphinganine, or “safingol,” was also tested and results shown for reference. There are 12 wells treated per drug concentration. Twelve wells receive drug vehicle-only to the appropriate final concentration and serve as controls for the plate. Cells are incubated for 96 hours at 37° C. in ambient air with 5% CO2. Fluorescein diacetate is then added to each well in 0.05 mL media to a final concentration of 8 microgram/mL. Cells are incubated for a further 15 minutes at 37° C. and 0.03 mL of 0.5% eosin Y is added to each well. Total fluorescence of viable cells is then measured by digital imaging microscopy. Results were graphed as the ratio of the fluoresecence of drug-treated wells to non-drug treated control wells (i.e., Survival Fraction). All tests were performed at least twice. Representative results are shown.
(§2) The Combination Index (CI) is a term to describe mathematical modeling of the pharmacologic effects on cytotoxicity (cell death) of two drugs in combination based. Cytotoxic “synergy” is defined as a cell death affect which is greater than would be expected from a simple product of the single agent cytotoxicities alone (i.e. an “additive” effect). By Chou-Talalay analysis, a CI<0.9 on a Fraction Affected (“Fa”, i.e. fraction of cells killed) indicates synergy, with smaller numbers indicating greater synergy; a CI of 0.9-1.1 signifies an additive or near-additive effect; and a CI>1.1 means the drug combination is antagonistic.
(§3) Fenretinide and L-threo-sphinganines tested in normal human fibroblast (normal skin cell) cell lines, CRL-2091 and CRL-2076.

[2] = system: CRL-2091 normal human fibroblast cell line; test: as above; type: cell-based; conditions: CRL-2091, 20% O2, 96 h
Description: as §1, §2, §3

[3] = system: CHLA-266 primitive neuroectodermal tumor (PNET) cell line; test: DIMSCAN cytotoxicity, fenretinide + L-threo-sphinganines 3:1 (Example B9); type: cell-based, human; conditions: 96 h
Description: as §1, §2
Fenretinide and L-threo-sphinganines tested in human primitive neuroectodermal tumor (PNET) (brain cancer) cell line, CHLA-266.

[4] = system: OE-33 esophageal adenocarcinoma cell line; test: DIMSCAN cytotoxicity, fenretinide + L-threo-sphinganines 3:1 (Example B19); type: cell-based, human
Description: as §1, §2
Fenretinide and L-threo-sphinganines tested in human esophageal adenocarcinoma (esophagus cancer) cell lines, OE-19 and OE-33.

[5] = system: drug-resistant CHLA-90 neuroblastoma cancer cell line; test: DIMSCAN cytotoxicity dose-response with fenretinide (Examples A, FIGS. 1, 7, 12); type: cell-based, human; conditions: at one or more doses, +96 hrs
Description: Cytotoxicity Assay: Cytotoxicity in cell lines was determined using a fluorescence-based assay employing digital imaging microscopy (DIMSCAN)(after Fragala, et al, Mol Cancer Ther, 6:886-897, 2007). DIMSCAN quantitates viable cells which selectively accumulate fluorescein diacetate and is capable of measuring cytotoxicity over a 4-5 log dynamic range by quantifying total fluorescence per well (which is proportional to viable, clonogenic cells) after eliminating background fluorescence using digital thresholding and eosin Y quenching. Briefly, cell lines were seeded into 96-well plates in 100 µL of complete culture medium (10-20% serum) per well. Cells were incubated overnight in 2%, 5% or 20% oxygen (room air) prior to addition of drugs in […] volumes of complete medium to various final drug concentrations in replicates of 12 wells per concentration. In assays employing D-threo-PPMP, PPMP was employed at a fixed, minimally-toxic, final concentration of 10 μM in each well. Control wells received ethanol (final concentration=0.12%-0.20%) in complete medium equivalent to the maximum final ethanol concentration of drug-treated wells. Plates were incubated at various oxygen concentrations to simulate physiological hypoxia (i.e., 2% oxygen=typical solid tumor oxygen levels; 5%=bone marrow oxygen levels for leukemias; 20% room air=supraphysiological oxygen for comparison with typical laboratory culture conditions). Plates were assayed at 3-4 days after initiating drug exposure depending on the growth properties of each cell line, to allow for maximum cell death and outgrowth of surviving cells. To measure cytotoxicity, FDA (stock solution of 1 mg/ml in DMSO) was added, in 50 µL of complete medium per well, to a final concentration of 10 µg/ml. The plates were incubated for an additional 15-30 minutes at 37 C and then 30 µL of eosin Y (0.5% in normal saline) was added per well. Total fluorescence of each well was then measured using digital imaging microscopy. […]

[6] = 4-HPR 1.5 μM + L-threo-sphinganine 0.5 μM
[7] = 4-HPR 3 μM + L-threo-sphinganine 1 μM
[8] = 4-HPR 6 μM + L-threo-sphinganine 2 μM
[9] = 4-HPR 9 μM + L-threo-sphinganine 3 μM

SMILES	CI (Combination Index) [1, 6]	Fa (fraction affected) [1, 6]	CI (Combination Index) [1, 7]	Fa (fraction affected) [1, 7]	CI (Combination Index) [1, 8]	Fa (fraction affected) [1, 8]	CI (Combination Index) [1, 9]	Fa (fraction affected) [1, 9]	CI (Combination Index) [2, 6]	Fa (fraction affected) [2, 6]	CI (Combination Index) [2, 7]	Fa (fraction affected) [2, 7]	CI (Combination Index) [2, 8]	Fa (fraction affected) [2, 8]	CI (Combination Index) [2, 9]	Fa (fraction affected) [2, 9]	CI (Combination Index) [3, 6]	Fa (fraction affected) [3, 6]	CI (Combination Index) [3, 7]	Fa (fraction affected) [3, 7]	also measured
CCCCCCCCC[C@H](O)[C@@H](N)CO [C12]	1	0.17	>1	0.30	>1	0.29	>1	0.30	>1	0.27	0.76	0.44	>1	0.42	>1	0.54	0.6	0.464	0.6	0.788	CI (Combination Index) [3, 8]: 0.7; Fa (fraction affected) [3, 8]: 0.951; CI (Combination Index) [3, 9]: 1.0; Fa (fraction affected) [3, 9]: 0.965; CI [4, 6]: 1.0; Fa [4, 6]: 0.376; CI [4, 7]: 1.0; Fa [4, 7]: 0.618; CI [4, 8]: 1.3; Fa [4, 8]: 0.758; CI [4, 9]: 1.1; Fa [4, 9]: 0.925
CCCCCCCCCCC[C@H](O)[C@@H](N)CO [C14]	>1	0.10	>1	0.10	>1	0.12	>1	0.08	>1	0.32	>1	0.40	>1	0.21	>1	0.69	0.6	0.342	0.9	0.739	CI (Combination Index) [3, 8]: 1.1; Fa (fraction affected) [3, 8]: 0.968; CI (Combination Index) [3, 9]: 1.6; Fa (fraction affected) [3, 9]: 0.974
CCCCCCCCCCCC[C@H](O)[C@@H](N)CO [C15]	1	0.08	>1	0.09	>1	0.06	>1	0.07	>1	0.26	>1	0.39	>1	0.29	>1	0.66	0.5	0.657	1.0	0.701	CI (Combination Index) [3, 8]: 1.2; Fa (fraction affected) [3, 8]: 0.906; CI (Combination Index) [3, 9]: 0.4; Fa (fraction affected) [3, 9]: 0.999
CCCCCCCCCCCCCCC[C@H](O)[C@@H](N)CO [C18, (2S,3S)-2-amino-1,3-octadecanediol, reference compound]	>1	0.20	1	0.11	>1	0.35	>1	0.94	>1	0.16	>1	0.29	>1	0.29	0.33	0.73	0.5	0.604	0.8	0.880	CI (Combination Index) [3, 8]: 1.1; Fa (fraction affected) [3, 8]: 0.984; CI (Combination Index) [3, 9]: 1.5; Fa (fraction affected) [3, 9]: 0.989
CCCCCCCCCCCCCCCC[C@H](O)[C@@H](N)CO [C19, (2S,3S)-2-amino-1,3-nonadecanediol]	–	–	–	–	–	–	–	–	–	–	–	–	–	–	–	–	–	–	–	–	CI [4, 6]: 1.9; Fa [4, 6]: 0.299; CI [4, 7]: 1.6; Fa [4, 7]: 0.582; CI [4, 8]: 0.6; Fa [4, 8]: 0.951; CI [4, 9]: 0.3; Fa [4, 9]: 0.989; C.I. (Combination Index) with fenretinide [5]: < 1
CCCCCCCCCCCCCCCCC[C@H](O)[C@@H](N)CO [C20, (2S,3S)-2-amino-1,3-icosanediol]	–	–	–	–	–	–	–	–	–	–	–	–	–	–	–	–	–	–	–	–	CI [4, 6]: 1.9; Fa [4, 6]: 0.255; CI [4, 7]: 1.9; Fa [4, 7]: 0.445; CI [4, 8]: 0.8; Fa [4, 8]: 0.883; CI [4, 9]: 0.2; Fa [4, 9]: 0.993; C.I. (Combination Index) with fenretinide [5]: < 1
